Test results: paper PMC9820430, “New Affordable Methods for Large-Scale Isolation of Major Olive Secoiridoids and Systematic Comparative Study of Their Antiproliferative/Cytotoxic Effect on Multiple Cancer Cell Lines of Different Cancer Origins” (International Journal of Molecular Sciences, 2022)

Experiments:
[1] = tested on: A2058; experiment: EdU incorporation cell proliferation assay, 24 h; type: cell-based, human; settings: for % EdU +ve ± SE (S-phase cells): 24 h treatment at EC50 concentration
Procedure: For this purpose, ten cancer cell lines (i.e., MDA-MB 231, SK-BR-3, MCF-7, A2058, SK-MEL-28, AGS, HepG-2, PANC-1, H1299 and Hela) originating from breast, melanoma, stomach, hepatic, pancreatic, lung and cervical tumors were analyzed in parallel with control samples (i.e., the same cells treated only with 0.2% (v/v) DMSO). […] Subsequently, the treated cells were allowed to incorporate 5-ethynyl-2′-deoxyuridine (EdU) into replicating DNA according to the protocol described in detail in the Experimental Section. EdU, a thymidine analog, can be incorporated into DNA in vivo and detected later by using copper-catalyzed azide–alkyne cycloaddition (click reaction) without prior DNA denaturation. The pool of cells in the S phase can be then easily detected by fluorescence (FL) microscopy or by flow cytometry by analyzing the incorporation of EdU in replicating DNA of single cells. In this study, after EdU incorporation, the nuclei of the entire cell population were stained with Hoechst and imaged by confocal microscopy (Experimental Section). EdU-positive nuclei, marked by green FL, as well as the total number of nuclei, marked by blue FL, were enumerated by applying the Icy image analysis algorithm on the digital images acquired by confocal microscopy.
Human cancer cells were plated onto sterile glass coverslips (10-mm diameter, 5161063, ThermoFisher Scientific, Waltham, MA, USA) in 24-well tissue culture plates, at a density 5 times the density of cells seeded in 96-well plate and at a final medium volume of 500 μL. In order to obtain homogeneous plating, 250 μL of the medium was added directly to the wells already containing coverslips. Using a tip perpendicularly, coverslips were pressed in order to ensure their attachment to the bottom of the well. The cells were then seeded by adding 250 μL of single-cell suspension drop by drop following a cross path. Immediately after seeding, the plate was shaken back and forth at least ten times to achieve homogeneous plating. The cells were allowed to adhere overnight (~16 h) at 37 °C and 5% (v/v) CO2. The next day, a volume of 500 μL fresh medium was added to each well and the treatment with OOPs was initiated by adding directly to the wells 2 μL of OOPs from the 500× stock in DMSO and immediately mixed afterward by pipetting. […] Control cells were prepared under the same experimental conditions using DMSO instead of the OOPs’ solutions in DMSO at the same final concentration (0.2% (v/v) DMSO). […] Each condition was performed in duplicate. After treatment with the OOPs, live proliferating mammalian cells were labeled with 5-ethynyl-2’-deoxyuridine (EdU), a nucleoside analog of thymidine, using the Cell proliferation kit III (EdU-FM, PK-CA724-488FM, Promokine, Heidelberg, Germany). More specifically, a 20 μM EdU solution from a 10 mM stock in DMSO was prepared in a fresh culture medium. Culture supernatant was removed from treated cells to leave only 250 μL. An equal volume of 20 μM EdU solution was added and mixed with the medium to obtain a 10 μΜ EdU final concentration. The treated cells were incubated for the desired time of pulse length (2–4 h) under conditions optimal for each cell type depending on each cell line’s doubling time. Following incubation, cells were washed twice with PBS, then fixed with 4% (w/v) paraformaldehyde in PBS for 15 min at room temperature (RT), and subsequently washed twice with 3% (w/v) BSA for 5 min each time. Cells were permeabilized by incubation (20 min, RT, in the dark) with 0.5% (v/v) Triton-X 100 in PBS. Following permeabilization the cells were washed twice with 3% (w/v) BSA in PBS and incubated for 30 min with the reaction cocktail, according to the instructions of the Cell proliferation kit III (EdU-488; FM). After staining for replicating DNA, the cells were washed three times with 3% (w/v) BSA in PBS, and were then incubated (10 min, at RT) with Hoechst 33342 in PBS (1:10.000) to visualize all the nuclei. […]

[2] = tested on: SK-BR-3 cells; experiment: Deactivation in culture medium (direct addition vs pre-incubation), ATP assay 48 h; type: cell-based, human; settings: 20 and 40 μM, 15 min pre-incubation in culture medium vs direct addition
Procedure: The other OOPs tested were not affected similarly (Figure S3B). […] It was therefore decided for all the experiments presented in this manuscript and the assays performed to calculate the EC50 values to add all the OOPs tested directly to the culture medium.
Viable cell numbers were determined using the ATP-based luminescence assay after 48 h of treatment. The compound was added to the cells either directly or after incubation with the culture medium for 15 min. The results presented are from four independent experiments performed in triplicate. Bar graphs represent the mean cell count ± SE in each treatment group normalized to the control group (i.e., cells treated only with 0.2% (v/v) DMSO). * p < 0.05; ** p ≤ 0.01 (t-test) comparing the two different treatment methods.

[3] = tested on: Caco-2 cells; settings: cited from earlier work
[4] = tested on: Hela cells; settings: cited from earlier work
[5] = tested on: MCF-7/TR (tamoxifen-resistant); design: method as in Mazzei et al. (2020) 27; settings: ref Mazzei et al. (2020) 27; cited from earlier work

SMILES | % EdU +ve ± SE (S-phase cells) [1] [%] | stability/deactivation in the cell culture medium [2] | EC50 [3] [µM] | EC50 [4] [µM] | % Inhibition ± SE of cell proliferation ([1]; 24 h at EC50, normalized with the control) [%] | EC50 [5] [µM]
C/C=C(/C=O)[C@@H](CC=O)CC(=O)OCCc1ccc(O)cc1 [compound 1, oleocanthal] | 25.5 ± 5.3 | partially deactivated | > 150 | > 150 |  | 
COC(=O)C1=COC(C)[C@@H](C=O)[C@@H]1CC(=O)OCCc1ccc(O)c(O)c1 (mixture of isomers) [3a,b, oleuropein aglycone] | 23.7 ± 5.8 |  |  |  | 15.0 ± 10.3 | 70
